# Measured values: patent US9856511B2, “Protease deubiquitinating inhibitor screening” (priority 2011, dated 2018)
# Experiments:
# HCT116 cells = type: cell-based; details: human
# Source text: These findings indicate that high molecular weight ubiquitin substrate complexes accumulating as a result of DUB inhibition can generate strong cytotoxicity that is insensitive to Bcl-2 over-expression. [table]
# [1] = tested on: isogenic clones of HCT116 colon cancer cells; assay: Apoptosis in isogenic HCT116 clones, caspase cleaved cytokeratin-18 ELISA; type: cell-based
# Experimental: The increase in sub G1 DNA content is associated with (i) activation of the apoptosis mediator caspase-3 and (ii) with cleavage of the caspase substrates poly-ADP ribose polymerase (PARP) and cytokeratin-18. […] Apoptosis induction by bortezomib is dependent on p53 and inhibited by overexpression of the Bcl-2 protein (16,17).
# For determination of apoptosis parental HCT-116 p53+/+ cells were treated with the increasing doses of bortezomib or b-AP15 for 24 h. […] HCT-116 cells were seeded in 96-well microtiter plates at 10,000 cells per well and incubated overnight. Cells were treated with indicated drug for 24 h. At the end of the incubation period, NP40 was added to the tissue culture medium to 0.1% and 25 μl of the content of each well was assayed using the M30-Apoptosense® ELISA as previously described (43). Cell viability was determined by measuring acid phosphatase activity or using the FMCA method (44). For the acid phosphatase activity cells were seeded at 5000 cells per well in 96-well culture plates and incubated for 12 h at 37° C. Compounds were added to the cells in growth media and incubated for 72 h at 37° C. Cells were washed with 200 μl warm PBS. […] Absorbance was measured at 405 nm.
# b-AP15 inhibits degradation of ubiquitin-tagged YFP in a proteasome reporter cell line (FIG. 1a). Levels of ^UbG76V-YFP accumulation were determined by flow cytometry and immunoblotting; immunoblot of ubiquitin conjugation in HCT-116 cells treated with b-AP15 (1 μM) or bortezomib (100 nM) (FIG. 1b). […] Immunoblot of ODC-1 levels in HCT-116 cells following treatment with bortezomib ([…] or b-Ap15 (1 μM) (FIG. 1d); values represent quantified optical density units of ODC-1 normalized to β-actin. Cell cycle profiles of b-AP15 treated HCT-116 cells (FIG. 1e); cells were analyzed by propidium iodide staining and flow cytometry. Levels of caspase activity in isogenic HCT-116 cells as determined by ELISA for caspase cleaved cytokeratin-18 (CK18-Asp398) following treatment with bortezomib (100 nM) or b-AP15 (1 μM) (**′P=0.01, ***′P=0.001) (FIG. 1f). […]
smiles,measurement,setting,value
CC(C)C[C@H](NC(=O)[C@H](Cc1ccccc1)NC(=O)c1cnccn1)B(O)O [bortezomib],Fold induction DNAJB1 (Hsp40B1) mRNA,HCT116 cells,5 fold
same,Fold induction HSPA1B mRNA,HCT116 cells,12 fold
same,Fold induction HSPA6 (Hsp70B′) mRNA,HCT116 cells,60 fold
same,apoptosis: effect of genetic disruption of BAX or PUMA,[1],bortezomib-induced apoptosis is inhibited
